Experiment [1] deals with lemon sharks. Nature of the experiment: Tonic immobility, Micropipette Assay. Conditions: for Comments (behavior observed): lemon / juvenile sharks, micropipette. The class given is in vivo, N. brevirostris. On the procedure:
(§1) One bioassay used to observe and measure flight response is the tonic immobility test. Tonic immobility is a state of paralysis that typically occurs when a shark is subject to inversion of its body along the longitudinal axis. This state is called “tonic,” and the shark can remain in this state for up to 15 minutes thereby allowing researchers to observe effects of chemical repellents. The “tonic” state of the shark is first established by releasing seawater in proximity to the “tonic” shark with the same delivery instrument and at the same distance as a “test” repellent compound will be released. Some controls are released with a high flow rate (30 mL/sec) in order to establish that sharks are not awakened by a jet of fluid over their noses. Once behavioral controls are established, a compound or composition that may have a repelling effect is delivered to the shark. If the compound or composition engenders a flight response, the shark will awaken from the tonic state and rapidly attempt to flee the delivered repellent. Using this tonic immobility bioassay researches can quantify the strength of a repellent effect.
A fourth method of delivery was called the “Micropipette Assay” method of delivery. In this method, a very small dose (fraction of a mL) of a test substance was delivered directly into a shark's mouth. […] A response, such as a cough or other notable action of the shark, was usually noted when effective gustatory repellents were delivered directly into a shark's mouth while in tonic immobility.
The Micropipette Assay method has not proven to be a particularly effective method of assaying for a flight response in elasmobranchs. The Micropipette Assay method is, nevertheless, an excellent method for specifying that a gustatory response has occurred. It is effective for specifying a gustatory response because the micropipette delivery method allows direct delivery of an entire bolus of test substance into the mouth of the shark being tested.
Using a microliter syringe or microliter pipette, a bolus of test chemical can be directed precisely into one of the shark's nares, or its mouth. […] Olfactory repellents will terminate tonic immobility almost immediately when injected into a nare of the shark.
(§2) Lemon, nurse, blacktip and tiger sharks were placed in tonic immobility by inverting the shark's body along its longitudinal axis. […] The “tonic” state of each shark was first established by releasing a control of seawater in proximity to the shark with the same delivery instrument and at the same distance as the chemical repellent would later be delivered. In certain controls, sea water was released with a high flow rate (30 mL/sec) in order to establish that the sharks would not be awakened by a jet of fluid over their noses.
(§3) Once behavioral controls were established, the chemical repellent was delivered to the shark using the Hd Syringe Assay method, the Syringe 3/5/10 Assay method, the Bite Assay method or the Micropipette Assay method. […] If tonic immobility was terminated, the positive response was denoted as “Y.” If tonic immobility was not terminated but a behavior change within tonic immobility was noted, such as the opening of the mouth or a cough, the response was denoted as an “R” for reduced response. If no behavior change was observed, the negative response was denoted “N.”
Further because the Micropipette assays were often done serially on the same set of sharks, second and third doses of the repellent over time would be expected to evoke less of a reaction. Nevertheless, the small doses delivered to the shark in the Micropipette assay provide important data on whether a compound is a gustatory stimulant because the small dose may be delivered directly into the mouth of the shark. This eliminates any olfactory response that might be acting in concert with a gustatory response to terminate tonic immobility.

The subject of the next experiment is juvenile sharks. Nature of the experiment: Initial tonic immobility assays, mouth delivery by micropipette or syringe. The class given is in vivo. Conditions: introduced to the mouth using a micropipette or syringe.
Experiment [2] deals with sharks (lemon, nurse, tiger pooled). The experiment can be described thus: Tonic immobility, Hd Syringe Assay, summary over species. Format: in vivo. The following applies: species pooled. As to the method:
as §1
In Hd-Syringe Assays, the 3-methylbutanal was delivered to the shark's mouth and nares using a 3 mL hypodermic syringe fitted with a 22 gauge needle. The needle was held within 3 inches of the shark's mouth and the test repellent was slowly released from the syringe with a very fine plume in the water column. Any response was denoted. If a response occurred during a measurable time after delivery of the test chemical, the time between delivery and response was noted. If a response occurred immediately or the response occurred before a measurable time could be established, no time to response was noted.

For experiment [3], the system named is lemon sharks. The experiment can be described thus: Tonic immobility, Syringe Assay. The class given is in vivo, N. brevirostris. On the procedure: as §1
(§4) A second delivery method called the “Syringe Assay” method delivered a dose of 60 mL or more of a test chemical repellent from at least one foot, and up to as many as five feet, from a shark. The distance of delivery was determined based on the strength of the water current in the direction of the shark. Time from delivery of the test substance until response was observed, measured and recorded. The “Syringe” method allows a researcher to observe how a diffusing and diluting cloud of test chemical repellent affects the shark's behavior when the shark encounters the delivered cloud of test substance. The “Syringe” method requires relatively large doses because of the diffusion of the cloud over time and distance. Time from delivery to response is related to the size of the bolus delivered from the syringe, distance of the shark from the syringe and water current.
as §2, §3
(§5) In the Syringe assay about 60 mL or more of valeraldehyde was delivered from one to as many as five feet from the shark depending on the water current. […] Time from delivery to response was related to the size of the bolus delivered from the syringe, distance of the shark from the syringe and water current.

The test system of the next experiment is nurse sharks. Nature of the experiment: Tonic immobility, Syringe Assay. Format: in vivo, C. cirratum.
For experiment [4], the system named is sharks (lemon, nurse, blacknose, blacktip pooled). The experiment can be described thus: Tonic immobility, Syringe Assay, summary over species. Format: in vivo. On the procedure: as §1, §4, §5
Another experiment concerns sharks (species pooled). Nature of the experiment: Tonic immobility, total of delivery methods not including Micropipette assays. The following applies: species and delivery methods pooled. The class given is in vivo. On the procedure:
as §1
Table 1, which summarizes the data in Tables 14 and 15, evidences the gustatory repellent characteristics of methylbutanals. In 35 of 36 assays (combining columns “Y” and “R” under the column labeled “Total (Not including Micropipette Assays)” to arrive at a 97% effectiveness rate), including assays on lemon, nurse, tiger and blacktip sharks, the gustatory repellent activity of 3-methylbutanal was established. In 81% of assays, tonic immobility was fully terminated. […] In only a single assay did a shark not respond to treatment with 3-methylbutanal.

For experiment [5], the system named is Caribbean reef sharks and blacknose sharks. The experiment can be described thus: Cage Assay on free-swimming sharks. Format: in vivo, C. perezii, C. acronotus. Conditions: for Cage Y (repellent activity), trials of trials: 500 mL delivered at baited cage; for number of strikes at the baited cage / return of sharks / interactions with the baited cage after 10 minutes: 500 mL of 50% w/w in diethylene glycol monoethyl ether. An excerpt:
Another bioassay used to observe a flight response in sharks is a free-swimming test using a small metal cage containing bait. This assay is referred to as a “Cage Assay.” The cage with bait is suspended below a float in the water column. A ⅜ inch diptube is secured from the cage to the boat and carried chemical compounds to the proximity of the cage where the test substances were delivered. Sharks are drawn to the vicinity of the boat with chum. Sharks are observed to immediately bump and bite at the cage wherein bait was contained. The number of interactions between the sharks and the cage are recorded over time. Test chemical repelling substance is delivered to the vicinity of the cage through the diptube. The frequency of bumps and strikes by sharks against the cage is then monitored and recorded. If bumps and strikes by sharks cease for a period of time, that time period is also recorded. In the free-swim ring tests disclosed herein using a baited cage, the volume of test chemical repellent delivered into the vicinity of the cage was about 500 mL.
A series of chemical repellent tests on free-swimming Caribbean reef sharks (C. perezii) and blacknose sharks (C. acronotus) was performed in tropical waters. A small metal cage containing bait was suspended below a float in the water column. A ⅜″ ID HDPE diptube was secured from the cage to the boat, so that chemical compounds could be transported to the cage's proximity. Sharks were stimulated using bunker chum in bags.
The number of interactions was recorded using an underwater pole-camera.

The results in this text go back to US9456589B2, “Elasmobranch-repelling compounds and methods of use” (priority 2005, dated 2016).

Several values for one entry are separate records, joined by “and”; a condition that tells them apart may be missing. Equal entries are not always repeated. Entries after “also recorded” stand apart in the source; their conditions may differ. Where two headings read alike, the source gives them in different places.

Take `Cc1cccnc1N` [2-amino-3-picoline 95%, 2-amino-3-picoline]: in the experiment with lemon sharks [1], the “Comments (behavior observed)” value is recorded as “violent seizure; also recorded: VIOLENT/SEIZURE”. Besides, the “Comments (behavior observed)” value with lemon sharks [1] (listed as aminopicoline) is “violent responses”. In addition, in the experiment on lemon sharks [1] (lemon sharks), the “Micropipette assays terminating tonic immobility” value is reported as “one” and the “Micropipette assays with a response” value is reported as “two of two”.
With `Cc1ncccc1N` [3-amino-2-picoline], the “result of initial tonic immobility assays” value (“result” below) with juvenile sharks is listed as “terminated tonic immobility”.
For the compound `Cc1cccnc1` [3-methylpyridine], the “Hd-Syringe Y (termination of tonic immobility), trials of trials” value in experiment [2] is “three of three and 3/3”. Besides, in the experiment on juvenile sharks, the “result” value is on record as “terminated tonic immobility”.
Consider `CCCC=O` [Butyraldehyde, butyraldehyde], for which the “Syringe assays terminating tonic immobility (text)” value is “resulting in termination of tonic immobility” with lemon sharks [3] and “two” in the experiment with nurse sharks. The “Syringe assays with no response” value with nurse sharks is listed as “one”. For the same compound, the “Syringe Y (termination of tonic immobility), trials of trials” value is reported as 4/4 in experiment [4] and 4 of 5 in experiment [4] (listed as butyraldehyde). Further, the “Total (Not including Micropipette assays / Effective Delivery Methods) Y, trials of trials” value in the experiment with sharks (species pooled) is 4/4. In addition, the “Total Y, percent of trials” value with sharks (species pooled) was determined as 100%.
`CC(C)c1ccc(C=O)cc1` [Cuminaldehyde, cuminaldehyde]: the “Syringe assays terminating tonic immobility (text)” value with lemon sharks [3] is given as “resulted in termination of tonic immobility”. Also, the “Syringe Y (termination of tonic immobility), trials of trials” value in experiment [4] is 1/1; in experiment [4] (listed as cuminaldehyde) it was “terminated”. In addition, the “Total (Not including Micropipette assays / Effective Delivery Methods) Y, trials of trials” value in the experiment on sharks (species pooled) is on record as 1/1.
As to `CC(=O)/C=C/C1C(C)=CCCC1(C)C` (stereo not drawn) [Ionone, alpha-ionone], the “Cage Y (repellent activity), trials of trials” value (“Cage Y (repellent activity)” below) in experiment [5] is 1/1. Further, the “number of strikes at the baited cage” value in experiment [5] (listed as alpha-ionone) was “reduced”; in experiment [5] (listed as ionone) it was “decrease in the number of strikes”. Besides, the “return of sharks / interactions with the baited cage after 10 minutes” value (shortened to “return of sharks / interactions”) in experiment [5] (listed as alpha-ionone) is “interactions continued after a 10 minute period”; in experiment [5] (listed as ionone), “lull in feeding for 10 minutes”.
Turning to `O=Cc1ccc2c(c1)OCO2` [Piperonal, piperonal], in experiment [5], the “Cage Y (repellent activity)” value is 1/1; the “number of strikes at the baited cage” value is on record as “decrease in the number of strikes; also recorded: dramatically reduced”; the “return of sharks / interactions” value is “did not return; also recorded: interactions ceased”. Moreover, the “Total (Not including Micropipette assays / Effective Delivery Methods) Y, trials of trials” value in the experiment with sharks (species pooled) was 1/1.
Take `Cc1ccc(C=O)cc1` [Tolualdehyde, p-tolualdehyde]: the “Syringe assays terminating tonic immobility (text)” value with lemon sharks [3] (listed as p-tolualdehyde) is “termination of tonic immobility”; with lemon sharks [3] (listed as tolualdehyde), “terminated”. The “Syringe Y (termination of tonic immobility), trials of trials” value in experiment [4] is 1/1.
As for `COc1cc(CCC(C)=O)ccc1O` [Zingerone, zingerone], in experiment [5], the “Cage Y (repellent activity)” value was 1/1; the “number of strikes at the baited cage” value is “decrease in the number of strikes; also recorded: reduced”; the “return of sharks / interactions” value is listed as “lull in feeding for 10 minutes; also recorded: interactions continued after a 10 minute period”.
With `Cc1ccccn1` [alpha-picoline, 2-methylpyridine], in the experiment with juvenile sharks, the “result” value is “terminated tonic immobility”.
Take `Cc1cc(=O)n(-c2ccccc2)n1C` [antipyrine solution, antipyrine]: in the experiment with lemon sharks [1] (lemon sharks), the “Micropipette assays with a response” value is “a response was observed; also recorded: evoked a response in one assay” and the “Micropipette assays with no response” value is given as “no response; also recorded: did not evoke a response in another”.
In the case of `Cc1cc(C)nc(C)c1` [collidine], the “result” value in the experiment on juvenile sharks is “terminated tonic immobility”.
For `CCCCCCCCCC=O` [decanal], the “Syringe assays terminating tonic immobility (text)” value in the experiment with lemon sharks [3] and with nurse sharks was “terminated” each time. The “Syringe Y (termination of tonic immobility), trials of trials” value in experiment [4] is 1/1.
As to `Cc1ccncc1` [gamma-picoline, 4-methylpyridine], the “result” value in the experiment on juvenile sharks is “terminated tonic immobility”.
Take `CCCCCCC=O` [heptanal]: the “Syringe assays with no response” value in the experiment on lemon sharks [3] was “no response”. For the same compound, the “Syringe N (no response), trials of trials” value in experiment [4] was “no response and 1/1”.
As for `Cc1cccc(C)n1` [lutidine], the “result” value in the experiment with juvenile sharks is “terminated tonic immobility”.
For the compound `CC(=O)C=C(C)C` [mesityl oxide], in the experiment with lemon sharks [3], the “Syringe assays terminating tonic immobility (text)” value is listed as “terminated”. The “Syringe Y (termination of tonic immobility), trials of trials” value in experiment [4] was 1/1.
In the case of `CCCCCCCCC=O` [nonanal], the “Syringe assays terminating tonic immobility (text)” value in the experiment on lemon sharks [3] was “terminated”. Moreover, the “Syringe Y (termination of tonic immobility), trials of trials” value in experiment [4] is 1/1.
`CCCCCCCC=O` [octanal]: in the experiment on lemon sharks [3], the “Syringe assays terminating tonic immobility (text)” value is “terminated”. Besides, the “Syringe Y (termination of tonic immobility), trials of trials” value in experiment [4] is on record as 1/1.
Consider `COc1ccc(C=O)cc1OC` [veratraldehyde], for which the “Syringe assays with no response” value with nurse sharks is recorded as “no response”. Further, in the experiment on lemon sharks [1] (lemon sharks), the “Micropipette assays with a response” value was “eight of twelve” and the “Micropipette assays with no response” value is given as “four”. Besides, in experiment [4], the “Syringe N (no response), trials of trials” value is “one of seven and 1/7”; the “Syringe Y (termination of tonic immobility), trials of trials” value is “six of seven and six of six and 6/7”.
